The source of these data is patent US10271557B2, “Composition comprising a bacteriocin and an extract from a plant of the Labiatae family” (DUPONT NUTRITION BIOSCIENCES APS, priority 2003, dated 2019).

The test system of assay [1] is Listeria monocytogenes and B. cereus strains. The assay is described as follows: In vitro synergy with nisin in Bioscreen, 24 h at 30° C. The assay is classed as cell-based, Listeria monocytogenes; Bacillus cereus. As to conditions: combined with nisin. As to the method:
Growth curves of Listeria monocytogenes and B. cereus strains in laboratory media were analysed as described above using the Bioscreen C analyser. Minimal inhibitory concentrations (MIC) were determined for the test compounds used singly or in combination after 24 h at 30° C. […] These had been prepared by selected extraction with either organic solvents or CO2 to obtain extracts containing 28% phenolic diterpenes (28RE; Danisco) and a rosemary extract containing 6% rosmarinic acid (6RA; Danisco).

For assay [2], the system named is L. monocytogenes strain S23. Put plainly: MIC in Bioscreen after 24 h at 30° C. in laboratory medium. The assay is classed as cell-based, Listeria monocytogenes. As to conditions: alone. On the procedure: (§1) A 100,000 ppm GRE09 solution was prepared in water and filter sterilised (0.2 μm). Further dilutions were prepared in sterile deionised water at 1,250-20,000 ppm. Brain Heart Infusion broth (Oxoid) was prepared and GRE09 stock solutions were added to give the following test solutions of GRE09; 125, 250, 500, 750, 1000, 1250, 1500, 2000 ppm. […] A fully automated microbial growth analyser was used to determine microbial growth curves (Microbiology Reader Bioscreen C analyser linked to a PC with installed software BioLink v 5.30; Labsystem Oy, Finland). Tests were prepared in honeycomb 2 (HC 2) microtitre/cuvette plates with a capacity of 100 wells per plate. The wells were loaded with 270 μl of the prepared media and inoculated at a level of 10^3 CFU (colony forming units)/ml with 30 μl of microbial suspension. Incubation time and temperature was as appropriate for the test organism. This test allowed suitable test levels for the compounds to be determined. The rosemary extract and nisin were then tested in combination, using the same procedure. […] GRE09 solutions were prepared at 250, 500 and 1000 ppm as above. Combinations of all these test levels were prepared and tested in the Bioscreen as before.
(§2) Growth curves of Listeria monocytogenes and B. cereus strains in laboratory media were analysed as described above using the Bioscreen C analyser. […]

Assay [3] has as its system Listeria monocytogenes strains 272, CRA3930 and NCTC12426. Put plainly: Kill of Listeria in chicken soup at 20° C. with nisin and rosemary extract components. The assay is classed as cell-based. As to conditions: FIGS. 4 and 5. As to the method:
The chicken soup model was used as before. The following samples were tested: GRE09, deodorised rosemary extracts containing 28% or 70% phenolic diterpenes (RE28 and RE70; Danisco), a water soluble rosemary extract containing 6% rosmarinic acid (6RA; Danisco) and pure rosmarinic acid (RA; Sigma). Additions to the soup were made as appropriate. The soup was pasteurised (70° C./2 minutes), the pH recorded and the soup was then inoculated with a cocktail of Listeria cells prepared as described before. The tests were incubated at 20° C. and viable count enumeration performed after 0, 2, 4 and 24 h at 20° C. Initial Listeria levels were 1.3×10^5 CFU/ml. The test was repeated at two nisin levels and over different time periods. The pH of the soup without addition was pH 6.06-6.20.

Another assay relates to B. cereus Campden spores. Put plainly: MIC in Bioscreen after 24 h at 30° C. in laboratory medium. The assay is classed as cell-based, Bacillus cereus. The settings on record: alone. As to the method:
as §1, §2

Consider `CC(O)CO` (centres unmarked) [propylene glycol], for which the “effect of the substance on nisin activity (synergy) in laboratory medium” value in assay [1] is “did not enhance nisin activity”.
As to `O=C(/C=C/c1ccc(O)c(O)c1)O[C@H](Cc1ccc(O)c(O)c1)C(=O)O` [RA, rosmarinic acid], the “MIC in Bioscreen after 24 h at 30° C., individual components” value (in assay [2]; in the assay with B. cereus Campden spores) was 1% RA throughout. For the same compound, the “effect of the substance on nisin activity (synergy) in laboratory medium” value in assay [1] was “Enhanced nisin activity”. For the same compound, in assay [3], the “synergy with nisin in achieving kill of Listeria cells” value is recorded as “evident but not as strong”.
